Results on 3 compounds are retold here after patent publication US4873225A, “1-n-(4-amino-3-fluoro-2-hydroxybutyryl)-kanamycins” (Zaidan Hojin Biseibutsu Kagaku Kenkyu Kai, priority 1987, dated 1989).

Values after ≈ are worked out from the molar mass of the structure shown. Like-named read-outs stand apart in the source and are kept apart here.

Data set [1] concerns gram-positive bacteria, gram-negative bacteria and various kanamycin-resistant strains of bacteria. Description: Antibacterial activity in vitro, in words. The settings on record: tested in vitro. In kind it is cell-based. Here is the method:
The present inventors have carried out an extensive investigation in an attempt to produce such novel kanamycin derivatives which are capable of fulfilling such demands. […] The present invention has been completed on the basis of these above findings.
(§1) Antibacterial activities of each of the abovementioned compounds of the general formula (I) according to this invention were determined by measuring their minimum growth inhibitory concentrations (MIC, mcg/ml) against various bacteria in accordance with a standard serial dilution method. The pH condition of the incubation medium where the MIC data were measured was set at pH 7, unless otherwise specifically indicated. For the sake of comparison, the antibacterial spectra of 1-N-{(S)-4-amino-2-hydroxybutyryl}kanamycin A (i.e., amikacin) and 1-N-{(S)-4-amino-2-hydroxybutyryl}-3,4-dideoxykanamycin B (i.e., habekacin) were also measured in the same manner.

In data set [2] the test system is Staphylococcus aureus Ap 01. As to conditions: reported in earlier applications; cited from earlier work.
For data set [3], the system named is Staphylococcus epidermidis 109. As to conditions: reported in earlier applications; cited from earlier work.
The test system of data set [4] is Escherichia coli K-12 R5. Nature of the data set: MIC, standard serial dilution method. In kind it is cell-based. As to conditions: K12R5, pH 7. Here is the method: as §1
Infectious diseases by Escherichia coli K-12 R5 tend to increase in recent days. The compounds of this invention are therefore important for the therapeutic treatment of bacterial infections.

Data set [5] concerns Staphylococcus aureus 209P. Description: MIC, standard serial dilution method. The settings on record: pH 7, read-out: MIC. In kind it is cell-based. Here is the method:
as §1

The subject of data set [6] is Escherichia coli JR 225. Nature of the data set: MIC, standard serial dilution method. The settings on record: JR225, pH 7. In kind it is cell-based. The method, then: as §1
Data set [7] has as its system Pseudomonas aeruginosa A3. Description: MIC, standard serial dilution method. In kind it is cell-based. The settings on record: A3, pH 7, read-out: MIC. The method, then:
as §1

The test system of data set [8] is Providencia sp. Pv 16. Description: MIC, standard serial dilution method. Type of data set: cell-based. As to conditions: SP.PV16, pH 7, read-out: MIC. Here is the method:
as §1

Data set [9] concerns Mycobacterium 607. Nature of the data set: MIC, standard serial dilution method. As to conditions: Mycobacterium, 607, pH 7; read-out: MIC. Type of data set: cell-based. Here is the method: as §1
Data set [10] concerns Staphylococcus aureus Ap01. Description: MIC, standard serial dilution method. In kind it is cell-based. As to conditions: AP01, pH 7, read-out: MIC. Here is the method: as §1
Data set [11] deals with Escherichia coli K-12 ML 1629. Description: MIC, standard serial dilution method. The settings on record: K12ML1629, pH 7, read-out: MIC. Type of data set: cell-based. Here is the method: as §1
Data set [12] has as its system Corynebacterium bovis 1810. Nature of the data set: MIC, standard serial dilution method. In kind it is cell-based. As to conditions: Corynebacterium bovis, 1810, pH 7; read-out: MIC. Here is the method: as §1
For data set [13], the system named is Escherichia coli K-12. Nature of the data set: MIC, standard serial dilution method. In kind it is cell-based. The settings on record: K12, pH 7. Here is the method: as §1
The test system of data set [14] is Escherichia coli K-12 LA 290 R55. Nature of the data set: MIC, standard serial dilution method. Type of data set: cell-based. The settings on record: K12LA290R55, pH 7. Here is the method:
as §1

In data set [15] the test system is Klebsiella pneumoniae 22 #3038. Description: MIC, standard serial dilution method. As to conditions: pH 7, read-out: MIC. In kind it is cell-based. The method, then: as §1
For data set [16], the system named is Bacillus subtilis PCI219. Nature of the data set: MIC, standard serial dilution method. As to conditions: PCI219, pH 7, read-out: MIC. In kind it is cell-based. The method, then: as §1
For data set [17], the system named is Proteus rettgeri GN 311. Nature of the data set: MIC, standard serial dilution method. Type of data set: cell-based. As to conditions: Providencia rettgeri, GN311, pH 7; read-out: MIC. Here is the method:
as §1

Data set [18] concerns Pseudomonas aeruginosa GN 315. Nature of the data set: MIC, standard serial dilution method. Type of data set: cell-based. As to conditions: GN315, pH 7. Here is the method:
as §1

The test system of data set [19] is Serratia marcescens. Description: MIC, standard serial dilution method. In kind it is cell-based. The settings on record: pH 7, read-out: MIC. The method, then:
as §1

For data set [20], the system named is Pseudomonas aeruginosa TI 13. Description: MIC, standard serial dilution method. The settings on record: Pseudomonas aeruginosa, read-out: MIC. In kind it is cell-based. Here is the method:
as §1
(§2) (a) The antibacterial activities of the compounds of this invention are not decreased practically even under pH conditions of pH […] as compared to their antibacterial activities under neutral conditions of pH 7.

Data set [21] deals with Escherichia coli JR66/W677. Description: MIC, standard serial dilution method. Type of data set: cell-based. The settings on record: Escherichia coli, read-out: MIC. Here is the method:
as §1, §2

Data set [22] deals with mice. Description: Acute toxicity against mice. Type of data set: in vivo. As to conditions: orally administered, 150 mg/kg.

The term MIC denotes the smallest concentration in the dilution series that meets the test's criterion for growth inhibition.

Regarding `NC[C@H](F)[C@H](O)C(=O)N[C@@H]1C[C@H](N)[C@@H](O[C@H]2O[C@H](CN)[C@@H](O)[C@H](O)[C@H]2N)[C@H](O)[C@H]1O[C@H]1O[C@H](CO)[C@@H](O)[C@H](N)[C@H]1O` [1-N-{(2R,3S)-4-amino-3-fluoro-2-hydroxybutyryl}kanamycin B], in [1], the “enhancement in antibacterial activities” value was “did not show any enhancement in antibacterial activities”.

Turning to `NC[C@@H]1C[C@H](F)[C@@H](N)[C@@H](O[C@H]2[C@H](O)[C@@H](O[C@H]3O[C@H](CO)[C@@H](O)[C@H](N)[C@H]3O)[C@H](N)C[C@@H]2N)O1` [3',4'-dideoxy-3'-fluorokanamycin B], the “effective against resistant strain” value in [2] and in data set [3] was “effective against such certain resistant strains of bacteria” throughout.

As to `NC[C@@H](F)[C@H](O)C(=O)N[C@@H]1C[C@H](N)[C@@H](O[C@@H]2CC[C@H](O)[C@@H](CN)O2)[C@H](O)[C@H]1O[C@H]1O[C@H](CO)[C@@H](O)[C@H](N)[C@H]1O` [Invention Compound No. 2, 1-N-{(2R,3R)-4-Amino-3-fluoro-2-hydroxybutyryl}-2',3'-dideoxykanamycin A], the MIC in data set [4] was 6.25 µg/mL (≈ 10.9 µM); in [5], 0.2 µg/mL (≈ 0.35 µM); in [6], 0.39 µg/mL (≈ 0.682 µM); in [7], 0.78 µg/mL (≈ 1.36 µM); in [8] it was 1.56 µg/mL (≈ 2.73 µM); in [9] it was 1.56 µg/mL (≈ 2.73 µM). In addition, the minimum inhibitory concentration (MIC) is 1.56 µg/mL (≈ 2.73 µM) in [10]; 0.78 µg/mL (≈ 1.36 µM) in [11]; 0.78 µg/mL (≈ 1.36 µM) in data set [12]; 0.39 µg/mL (≈ 0.682 µM) in data set [13]; 0.78 µg/mL (≈ 1.36 µM) in data set [14]; 3.12 µg/mL (≈ 5.46 µM) in data set [15]. Further, the MIC in data set [16] came out at 0.78 µg/mL (≈ 1.36 µM); in data set [17] it was 0.78 µg/mL (≈ 1.36 µM); in data set [18], 12.5 µg/mL (≈ 21.9 µM); in data set [19], 3.12 µg/mL (≈ 5.46 µM); in data set [20] (TI13, pH 7) it was 3.12 µg/mL (≈ 5.46 µM); in data set [20] (TI13, measured at pH 6), 3.12 µg/mL (≈ 5.46 µM). Further, the MIC was found to be 1.56 µg/mL (≈ 2.73 µM) in data set [21] (JR66/W677, pH 7) and 6.25 µg/mL (≈ 10.9 µM) in data set [21] (JR66/W677, measured at pH 6). Besides, the survival of mice result in data set [22] is recorded as “all mice surrived”.
